Consider 17 compounds from US5063208A, “Peptidyl aminodiol renin inhibitors” (Abbott Laboratories, priority 1990, dated 1991).

This assay deals with T1, human renal renin (Homo sapiens, UniProt P00797).
T1 construct: human renal renin, free from acid proteolytic activity; from tissue
T1 sequence (P00797 67-406): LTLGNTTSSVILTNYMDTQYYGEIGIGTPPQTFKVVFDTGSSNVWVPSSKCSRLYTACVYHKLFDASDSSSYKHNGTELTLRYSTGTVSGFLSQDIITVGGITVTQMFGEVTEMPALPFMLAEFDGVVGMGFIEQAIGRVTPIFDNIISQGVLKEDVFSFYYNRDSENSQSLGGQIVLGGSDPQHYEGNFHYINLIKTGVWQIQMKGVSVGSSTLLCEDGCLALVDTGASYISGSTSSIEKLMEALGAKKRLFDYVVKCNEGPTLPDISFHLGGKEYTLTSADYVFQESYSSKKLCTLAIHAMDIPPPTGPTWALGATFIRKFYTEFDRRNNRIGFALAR
As to the kind of experiment: Inhibition of human renal renin in vitro (angiotensin I formed measured by radioimmunoassay). The conditions noted are these: human renal renin free from acid proteolytic activity, renin substrate human angiotensinogen, 37 degrees C, pH 6.0; read-out: IC50 (molar concentration required to cause 50% inhibition). The class given is biochemical. The procedure:
The compounds of the invention are also useful for treating congestive heart failure in a mammal. […] At the end of the incubation, the amount of angiotensin I formed is measured by radioimmunoassay and the molar concentration required to cause 50% inhibition, expressed as the IC50, is calculated.
In the case of `CC(C)C[C@H](O)[C@H](O)[C@H](CC1CCCCC1)NC(=O)[C@H](Cn1cccn1)NC(=O)[C@@H](CC(=O)N(C)CCc1ccccn1)Cc1ccccc1` [Example 119, (2R)-2-Benzyl-3-[(2-pyridin-2-ylethyl)methylaminocarbonyl]propionyl-L-(1-pyrazolyl)Ala Amide of (2S,3R,4S)-2-Amino-1-cyclohexyl-3,4-dihydroxy-6-methylheptane], the IC50 was 0.33 nM.
The figure for `CON(C)C[C@@H](Cc1ccccc1)C(=O)N[C@@H](Cc1cscn1)C(=O)N[C@@H](CC1CCCCC1)[C@@H](O)[C@@H](O)CC(C)C` [Example 100, (2R)-2-Benzyl-3-(N-methoxy-N-methylamino)propionyl-L-(4-thiazolyl)Ala Amide of (2S,3R,4S)-2-Amino-1-cyclohexyl-3,4-dihydroxy-6-methylheptane] is 1.8 nM.
As to `CC(C)C[C@H](O)[C@H](O)[C@H](CC1CCCCC1)NC(=O)[C@H](Cc1cscn1)NC(=O)[C@@H](CC1=CSC2=NCCN12)Cc1ccccc1` [Example 105, (2R)-2-Benzyl-3-(5,6-dihydroimidazo[2,1-b]thiazol-3-yl)propionyl-L-(4-thiazolyl)Ala Amide of (2S,3R,4S)-2-Amino-1-cyclohexyl-3,4-dihydroxy-6-methylheptane], the IC50 turned out to be 1.1 nM.
The figure for `CC(C)C[C@H](O)[C@H](O)[C@H](CC1CCCCC1)NC(=O)[C@H](Cc1cscn1)NC(=O)[C@@H](CC(=O)N(C)CCN1CCN(C)CC1)Cc1ccccc1` [Example 116, (2R)-2-Benzyl-3-[2-(4-methyloioerazin-1-ylethyl)methylaminocarbonyl]propionyl-L-(4-thiazolyl) Ala Amide of (2S,3R,4S)-2-Amino-1-cyclohexyl-3,4-dihydroxy-6-methylheptane] is 0.35 nM; for `CC(C)C[C@H](O)[C@H](O)[C@H](CC1CCCCC1)NC(=O)[C@H](Cn1cccn1)N(C)C(=O)C(Cc1ccccc1)NC(=O)N(C)CCc1ccccn1` (stereo partly drawn) [Example 156, [(2-pyridin-2-ylethyl)methylcarbonyl]phenylalanine-L-(N-α-methyl)-(1-pyrazolyl)alanine Amide of (2S,3R,4S)-2Amino-1-cyclohexyl-3,4-dihydroxy-6-methylheptane] it is 1.3 nM.
Turning to `CCCC[C@H](NC(=O)[C@@H](CC(=O)N(C)CCn1ccnc1)Cc1ccccc1)C(=O)N[C@@H](CC1CCCCC1)[C@@H](O)[C@@H](O)CC(C)C` [Example 123, (2R)-2-Benzyl-3-[(2-imidazol-1-ylethyl)methylaminocarbonyl]propionyl-Nle Amide of (2S,3R,4S)-2-Amino-1-cyclohexyl-3,4-dihydroxy-6-methylheptane], the IC50 is 0.26 nM.
With `CC(C)C[C@H](O)[C@H](O)[C@H](CC1CCCCC1)NC(=O)[C@H](Cc1cscn1)NC(=O)[C@@H](CC(=O)N(C)CCc1ccccn1)Cc1ccccc1` [Example 114] the figure was 0.33 nM; with `CC(C)C[C@H](O)[C@H](O)[C@H](CC1CCCCC1)NC(=O)[C@H](Cc1cscn1)NC(=O)[C@@H](CC(=O)CS(=O)(=O)C(C)(C)C)Cc1ccccc1` [Example 98, (2R)-2-Benzyl-5-tert-butylsulfonyl-4-oxopentanoyl-L-(4-thiazolyl)Ala Amide of (2S,3R,4S)-2-Amino-1-cyclohexyl-3,4-dihydroxy-6-methylheptane], 0.45 nM; with `CC(C)C[C@H](O)[C@H](O)[C@H](CC1CCCCC1)NC(=O)[C@H](Cn1cccn1)NC(=O)[C@@H](CC(=O)N(C)CCn1cccn1)Cc1ccccc1` [Example 142, (2R)-2-Benzyl-3-[(2-pyrazol-1-ylethyl)methylaminocarbonyl]propionyl-L-(1-pyrazolyl)Ala Amide of (2S,3R,4S)-2-Amino-1-cyclohexyl-3,4-dihydroxy-6-methylheptane], 0.19 nM.
The figure for `CC(C)C[C@H](O)[C@H](O)[C@H](CC1CCCCC1)NC(=O)[C@H](Cc1cscn1)NC(=O)[C@H](Cc1ccccc1)Cn1ccnc1` [Example 102, (2R)-2-Benzyl-3-imidazol-1-ylpropionyl-L-(4-thiazolyl)Ala Amide of (2S,3R,4S)-2-Amino-1-cyclohexyl-3,4-dihydroxy-6-methylheptane] is 0.69 nM; for `CC[C@H](O)[C@H](O)[C@H](CC1CCCCC1)NC(=O)[C@H](Cc1cscn1)NC(=O)[C@@H](CC(=O)N(C)CCn1cccn1)Cc1ccccc1` [Example 112, (2R)-2-Benzyl-3-[(2-pyrazol-1-ylethyl)methylaminocarbonyl]propionyl-L-(4-Thiazolyl)Ala Amide of (2S,3R,4S)-2-Amino-1-cyclohexyl-3,4-dihydroxyhexane] it is 0.25 nM; for `CCCC[C@H](NC(=O)[C@@H](CC(=O)N(C)CCn1cccn1)Cc1ccccc1)C(=O)N[C@@H](CC1CCCCC1)[C@@H](O)[C@@H](O)CC(C)C` [Example 121, (2R)-2-Benzyl-3-[(2-pyrazol-1-ylethyl)methylaminocarbonyl]propionyl-Nle Amide of (2S,3R,4S)-2-Amino-1-cyclohexyl-3,4-dihydroxy-6-methylheptane] it is 0.33 nM.
For the compound `CC(C)C[C@H](O)[C@H](O)[C@H](CC1CCCCC1)NC(=O)[C@H](Cc1cscn1)NC(=O)[C@@H](CC(=O)N(C)CCn1ccnc1)Cc1ccccc1` [Example 117, (2R)-2-Benzyl-3-[(2-imidazol-1-ylethyl)methylaminocarbonyl]propionyl-L-(4-thiazolyl)Ala Amide of (2S,3R,4S)-2-Amino-1-cyclohexyl-3,4-dihydroxy-6-methylheptane], the IC50 is 0.3 nM.
With `CC(C)C[C@H](O)[C@H](O)[C@H](CC1CCCCC1)NC(=O)[C@H](Cc1cscn1)NC(=O)[C@H](Cc1ccccc1)Cn1cccn1` [Example 101, (2R)-2-Benzyl-3-pyrazol-1-ylpropionyl-L-(4-thiazolyl)Ala Amide of (2S,3R,4S)-2-Amino-1-cyclohexyl-3,4-dihydroxy-6-methylheptane] the figure was 0.67 nM.
For the compound `CC(C)C[C@H](O)[C@H](O)[C@H](CC1CCCCC1)NC(=O)[C@H](Cc1cscn1)NC(=O)[C@@H](CC(=O)N1CCN(CC(F)(F)F)CC1)Cc1ccccc1` [Example 94, (2R)-2-Benzyl-3-(4-trifluoroethylpiperazin-1-ylcarbonyl)propionyl-L-(4-thiazolyl)Ala Amide of (2S,3R,4S)-2-Amino-1-cyclohexyl-3,4-dihydroxy-6-methylheptane], the IC50 turned out to be 0.57 nM.
Regarding `CC(C)C[C@H](O)[C@H](O)[C@H](CC1CCCCC1)NC(=O)[C@H](Cc1cscn1)NC(=O)[C@H](Cc1ccccc1)Cc1cscn1` [Example 97, (2R)-2-Benzyl-3-thiazol-4-ylpropionyl-L-(4-thiazolyl)Ala Amide of (2S,3R,4S)-2-Amino-1-cyclohexyl-3,4-dihydroxy-6-methylheptane], the IC50 is 0.68 nM.
The figure for `CC(C)C[C@H](O)[C@H](O)[C@H](CC1CCCCC1)NC(=O)[C@H](Cc1cscn1)NC(=O)[C@@H](CC(=O)CN1CCOCC1)Cc1ccccc1` [Example 95, (2R)-2-Benzyl-5-morpholin-4-yl-4-oxopentanoyl-L-(4-thiazolyl)Ala Amide of (2S,3R,4S)-2-Amino-1-cyclohexyl-3,4-dihydroxy-6-methylheptane] is 0.56 nM.
